Assay results taken from ChEMBL document CHEMBL1201862, “PubChem BioAssay data set” (2004).
Active and inactive are the calls of the source.

Columns and labels:
Melanocortin receptor 4 = Melanocortin receptor 4 (Homo sapiens, UniProt P32245); format: functional, cell-based;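 further: Cell-based assay with luminescence read-out, confirmatory dose-response testing for agonist activity of biased ligands at MC4R; human U2OS cells with tagged receptor and beta-arrestin; potency of agonists that increase receptor coupling to beta-arrestin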
[1] = target: T1, Voltage-gated N-type calcium channel alpha-1B subunit/Amyloid beta A4 precursor protein-binding family A member 1 (Homo sapiens, UniProt Q00975+Q02410); format: protein assay
[2] = target: T1, Voltage-gated N-type calcium channel alpha-1B subunit/Amyloid beta A4 precursor protein-binding family A member 1; format: protein assay; remark: listed apart in the source
ORF 73 = target: T2, ORF 73 (Human herpesvirus 8, UniProt O40947); experiment: KSHV LANA DNA-binding disruption – biochemical, fluorescence polarization, cherry-picked samples, dose response (AID 504725); parameters: species or system Human gammaherpesvirus 8;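 further: fluorescence polarization of a labeled DNA duplex reporting LANA DNA binding; potency is for inhibitors that block LANA binding to the DNA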
T2 sequence (O40947 whole entry): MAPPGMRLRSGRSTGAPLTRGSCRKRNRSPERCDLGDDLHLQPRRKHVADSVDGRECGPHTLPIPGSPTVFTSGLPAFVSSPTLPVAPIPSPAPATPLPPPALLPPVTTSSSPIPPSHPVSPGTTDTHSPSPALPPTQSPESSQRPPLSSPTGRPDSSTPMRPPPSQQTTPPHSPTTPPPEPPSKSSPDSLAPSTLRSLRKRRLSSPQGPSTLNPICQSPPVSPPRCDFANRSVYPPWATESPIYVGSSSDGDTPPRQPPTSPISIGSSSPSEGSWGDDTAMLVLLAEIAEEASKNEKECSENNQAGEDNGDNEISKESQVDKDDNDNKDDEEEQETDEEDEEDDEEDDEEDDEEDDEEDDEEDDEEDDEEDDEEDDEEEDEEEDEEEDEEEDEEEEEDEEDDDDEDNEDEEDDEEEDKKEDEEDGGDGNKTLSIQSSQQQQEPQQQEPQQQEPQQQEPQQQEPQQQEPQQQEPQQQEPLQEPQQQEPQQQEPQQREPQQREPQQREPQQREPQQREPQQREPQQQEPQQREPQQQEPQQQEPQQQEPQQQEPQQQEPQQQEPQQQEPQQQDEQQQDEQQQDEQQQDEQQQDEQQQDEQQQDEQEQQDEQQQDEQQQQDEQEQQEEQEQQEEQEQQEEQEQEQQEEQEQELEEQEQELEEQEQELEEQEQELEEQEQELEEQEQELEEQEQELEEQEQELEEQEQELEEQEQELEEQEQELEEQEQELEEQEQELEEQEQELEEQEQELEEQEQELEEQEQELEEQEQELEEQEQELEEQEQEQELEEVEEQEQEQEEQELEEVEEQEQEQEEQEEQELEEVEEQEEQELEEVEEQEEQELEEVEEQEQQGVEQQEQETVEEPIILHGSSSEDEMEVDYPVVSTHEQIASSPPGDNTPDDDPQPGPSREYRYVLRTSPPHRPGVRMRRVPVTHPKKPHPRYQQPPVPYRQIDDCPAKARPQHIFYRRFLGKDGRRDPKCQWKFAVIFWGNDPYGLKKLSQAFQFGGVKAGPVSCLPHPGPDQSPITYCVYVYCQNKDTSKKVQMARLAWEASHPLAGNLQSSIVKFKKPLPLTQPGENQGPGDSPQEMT

[3] = target: T3, Carboxy-terminal domain RNA polymerase II polypeptide A small phosphatase 1 (Homo sapiens, UniProt Q9GZU7); experiment: CTDSP1 inhibitors, concentration-response, biochemical, absorbance readout, ultra-high-throughput screen actives (AID 540297); format: functional
T3 sequence (Q9GZU7 whole entry): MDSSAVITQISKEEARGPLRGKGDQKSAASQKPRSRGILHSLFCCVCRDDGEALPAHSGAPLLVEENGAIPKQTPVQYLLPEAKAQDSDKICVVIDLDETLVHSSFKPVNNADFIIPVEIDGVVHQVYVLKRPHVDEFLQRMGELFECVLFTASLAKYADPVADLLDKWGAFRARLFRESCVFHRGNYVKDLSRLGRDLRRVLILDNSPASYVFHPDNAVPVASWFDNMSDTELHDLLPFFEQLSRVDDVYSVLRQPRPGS

[4] = target: DNA (cytosine-5)-methyltransferase 1 (Homo sapiens, UniProt P26358); experiment: inhibition of DNA methylation by DNMT1 – biochemical, fluorescent molecular beacon, confirmation (AID 602386); format: functional
[5] = target: T4, Corticotropin-releasing factor receptor 2/Corticotropin-releasing factor-binding protein (Homo sapiens, UniProt P24387+Q13324); experiment: Dose Response confirmation of uHTS hits for small molecule antagonists of the CRF-binding protein and CRF-R2 receptor complex.; format: functional; conditions: read-out: IC50_Mean
T4 sequence (Q13324 whole entry): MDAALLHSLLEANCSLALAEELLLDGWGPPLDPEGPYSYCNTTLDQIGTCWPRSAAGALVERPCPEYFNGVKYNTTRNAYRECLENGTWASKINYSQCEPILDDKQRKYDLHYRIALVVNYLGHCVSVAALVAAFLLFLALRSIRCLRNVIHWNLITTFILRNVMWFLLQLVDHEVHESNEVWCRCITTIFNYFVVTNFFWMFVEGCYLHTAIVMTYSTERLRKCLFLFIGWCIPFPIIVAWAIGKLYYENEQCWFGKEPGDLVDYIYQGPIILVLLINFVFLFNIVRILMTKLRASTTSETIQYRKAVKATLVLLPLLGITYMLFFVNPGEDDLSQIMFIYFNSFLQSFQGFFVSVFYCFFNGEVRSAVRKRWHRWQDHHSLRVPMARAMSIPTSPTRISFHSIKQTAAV
T4 sequence (P24387 whole entry): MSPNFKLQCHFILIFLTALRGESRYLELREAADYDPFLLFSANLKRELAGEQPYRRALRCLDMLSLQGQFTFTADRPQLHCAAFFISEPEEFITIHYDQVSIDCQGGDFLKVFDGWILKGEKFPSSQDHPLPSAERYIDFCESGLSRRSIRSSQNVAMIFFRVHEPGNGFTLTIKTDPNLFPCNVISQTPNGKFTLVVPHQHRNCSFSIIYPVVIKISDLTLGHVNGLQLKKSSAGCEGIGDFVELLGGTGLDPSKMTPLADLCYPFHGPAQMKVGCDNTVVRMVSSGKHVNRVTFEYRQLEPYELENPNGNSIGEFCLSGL

[6] = target: T4, Corticotropin-releasing factor receptor 2/Corticotropin-releasing factor-binding protein; experiment: activators of CRF receptor 2 with binding protein – uHTS hits, confirmation (AID 602473); format: functional; conditions: read-out: EC50_Mean
[7] = blockers of CRF-binding protein–CRF-R2 complex – cell-based, uHTS hits, 384-well, dose response (AID 651639); format: functional, Homo sapiens; conditions: read-out: IC50_Mean
[8] = target: T5, ATP-dependent translocase ABCB1 (Homo sapiens, UniProt P08183); experiment: inhibition of BCRP-mediated JC-1 efflux – Ig-MXP3 cells, flow cytometry, set 2, dose response (AID 504566); format: functional; conditions: read-out: EC50_MICROM_;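 further: flow cytometry median green fluorescence of retained JC-1 dye; potency of efflux pump inhibition measured as rising substrate retention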
[9] = target: T5, ATP-dependent translocase ABCB1; experiment: P-gp JC-1 efflux blockade concentration-response – Jurkat-DNR cells, flow cytometry, set 2, dose response (AID 504569); format: functional; conditions: read-out: EC50_MICROM_;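 further: potency of pump inhibitors that raise cellular JC-1 green fluorescence up to the nicardipine level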
CHO-K1 = experiment: Counterscreen for antagonists of the orexin 1 receptor (OX1R; HCRTR1): Homogeneous time resolved fluorescence (HTRF)-based cell-based dose response assay to identify antagonists of the parental CHO-K1 cell line. [Related pubchem assays (depositor defined):AID434989, AID435008, AID463079, AID485270, AID492963, AID492964, AID492965, AID493232, AID504699, AID504701]; format: functional; conditions: Cricetulus griseus
[10] = Counterscreen for antagonists of the orexin 1 receptor (OX1R; HCRTR1): Fluorescence-based cell-based high throughput dose response assay to identify antagonists of the parental CHO cell line. [Related pubchem assays (depositor defined):AID434989, AID435008, AID463079, AID485270, AID492963, AID492964, AID492965, AID493232, AID504699, AID504701]; format: functional
[11] = target: T6, Orexin/Hypocretin receptor type 1 (Homo sapiens, UniProt O43613); experiment: Homogeneous Time Resolved Fluorescence (HTRF)-based cell-based high throughput dose response assay for antagonists of the orexin 1 receptor (OX1R; HCRTR1). [Related pubchem assays (depositor defined):AID434989, AID435008, AID463079, AID485270, AID492963, AID492964, AID492965, AID493232, AID504717, AID504718]; format: functional
T6 sequence (O43613 whole entry): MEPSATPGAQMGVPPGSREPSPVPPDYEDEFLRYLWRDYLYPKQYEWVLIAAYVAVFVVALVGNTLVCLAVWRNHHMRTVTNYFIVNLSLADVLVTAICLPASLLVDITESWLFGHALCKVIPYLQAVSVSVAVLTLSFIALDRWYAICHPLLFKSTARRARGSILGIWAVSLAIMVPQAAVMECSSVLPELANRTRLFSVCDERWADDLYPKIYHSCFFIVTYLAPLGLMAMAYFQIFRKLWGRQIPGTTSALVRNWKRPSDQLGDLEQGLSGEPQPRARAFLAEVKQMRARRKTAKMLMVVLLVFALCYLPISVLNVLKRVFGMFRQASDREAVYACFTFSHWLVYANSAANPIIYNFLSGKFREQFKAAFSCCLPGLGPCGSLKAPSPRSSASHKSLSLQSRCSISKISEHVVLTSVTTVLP

[12] = target: T6, Orexin/Hypocretin receptor type 1; experiment: Fluorescence-based cell-based high throughput dose response assay for antagonists of the orexin 1 receptor (OX1R; HCRTR1). [Related pubchem assays (depositor defined):AID434989, AID435008, AID463079, AID485270, AID492963, AID492964, AID492965, AID493232, AID504717, AID504718]; format: functional
Orexin receptor type 2 [13] = target: T7, Orexin receptor type 2 (Homo sapiens, UniProt O43614); experiment: Counterscreen assay for antagonists of the orexin 1 receptor (OX1R; HCRTR1): Fluorescence-based cell-based dose response assay for antagonists of the orexin 2 receptor (OX2R; HCRTR2), run by assay provider.; format: functional
T7 sequence (O43614 whole entry): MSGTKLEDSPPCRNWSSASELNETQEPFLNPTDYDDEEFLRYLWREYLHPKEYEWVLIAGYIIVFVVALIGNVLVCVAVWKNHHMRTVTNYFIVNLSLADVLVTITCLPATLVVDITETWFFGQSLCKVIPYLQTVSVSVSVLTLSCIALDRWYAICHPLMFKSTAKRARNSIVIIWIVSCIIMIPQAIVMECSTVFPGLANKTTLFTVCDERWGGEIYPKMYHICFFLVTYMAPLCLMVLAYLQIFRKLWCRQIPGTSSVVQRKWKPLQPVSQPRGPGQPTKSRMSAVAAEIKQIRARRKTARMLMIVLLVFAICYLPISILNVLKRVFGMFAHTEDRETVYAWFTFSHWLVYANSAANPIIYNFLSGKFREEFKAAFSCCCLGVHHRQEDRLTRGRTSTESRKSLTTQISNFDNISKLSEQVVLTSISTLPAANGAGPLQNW

Orexin receptor type 2 [14] = target: T7, Orexin receptor type 2; experiment: Counterscreen assay for antagonists of the orexin 1 receptor (OX1R; HCRTR1): Homogeneous Time Resolved Fluorescence (HTRF)-based cell-based dose response assay for antagonists of the orexin 2 receptor (OX2R; HCRTR2), run by assay provider.; format: functional
[15] = target: ALK tyrosine kinase receptor (Homo sapiens, UniProt Q9UM73); format: functional;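 further: ALK tested as one member of a kinase panel screen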
LIM domain kinase 1 = LIM domain kinase 1 (Homo sapiens, UniProt P53667); experiment: Navigating the Kinome. Panel member name: LIMK1; format: functional
[16] = target: Dual specificity tyrosine-phosphorylation-regulated kinase 1B (Homo sapiens, UniProt Q9Y463); experiment: Navigating the Kinome. Panel member name: DYRK1B; format: functional
[17] = target: Macrophage-stimulating protein receptor (Homo sapiens, UniProt Q04912); experiment: Navigating the Kinome. Panel member name: MST1R; format: functional
[18] = target: T8, Polyadenylate-binding protein 1 (Homo sapiens, UniProt P11940); experiment: MLLE binding blockers, Cy5 peptide tracer – biochemical, fluorescence polarization, Cy5-PAM2 peptide, secondary, miRNA deadenylation inhibitor project, dose response (AID 602260); format: functional; conditions: read-out: IC50_Mean
[19] = target: T8, Polyadenylate-binding protein 1; experiment: MLLE domain peptide-binding blockers, IC50 – biochemical, fluorescence polarization, FITC-PAM2 peptide, dose response (AID 602259); format: functional; conditions: read-out: IC50_Mean

T8 sequence (P11940 whole entry, the tested form may be a part): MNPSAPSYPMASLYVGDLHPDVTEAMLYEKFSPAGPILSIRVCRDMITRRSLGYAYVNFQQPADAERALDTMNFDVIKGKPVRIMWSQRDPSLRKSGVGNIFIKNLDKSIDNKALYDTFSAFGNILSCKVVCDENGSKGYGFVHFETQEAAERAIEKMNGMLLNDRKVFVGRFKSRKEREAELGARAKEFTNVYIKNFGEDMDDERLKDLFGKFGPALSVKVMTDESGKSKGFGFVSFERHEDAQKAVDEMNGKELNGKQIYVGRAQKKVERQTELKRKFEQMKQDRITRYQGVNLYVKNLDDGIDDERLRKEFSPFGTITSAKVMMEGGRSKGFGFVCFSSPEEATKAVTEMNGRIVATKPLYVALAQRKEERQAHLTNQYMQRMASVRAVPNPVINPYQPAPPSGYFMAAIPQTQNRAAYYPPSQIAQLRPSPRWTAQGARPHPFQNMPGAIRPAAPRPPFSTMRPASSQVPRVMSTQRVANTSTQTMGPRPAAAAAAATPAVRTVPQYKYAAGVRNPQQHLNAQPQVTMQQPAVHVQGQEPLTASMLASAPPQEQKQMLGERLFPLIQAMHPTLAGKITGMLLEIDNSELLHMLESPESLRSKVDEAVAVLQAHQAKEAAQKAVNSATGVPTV
T1 sequence (Q00975 whole entry): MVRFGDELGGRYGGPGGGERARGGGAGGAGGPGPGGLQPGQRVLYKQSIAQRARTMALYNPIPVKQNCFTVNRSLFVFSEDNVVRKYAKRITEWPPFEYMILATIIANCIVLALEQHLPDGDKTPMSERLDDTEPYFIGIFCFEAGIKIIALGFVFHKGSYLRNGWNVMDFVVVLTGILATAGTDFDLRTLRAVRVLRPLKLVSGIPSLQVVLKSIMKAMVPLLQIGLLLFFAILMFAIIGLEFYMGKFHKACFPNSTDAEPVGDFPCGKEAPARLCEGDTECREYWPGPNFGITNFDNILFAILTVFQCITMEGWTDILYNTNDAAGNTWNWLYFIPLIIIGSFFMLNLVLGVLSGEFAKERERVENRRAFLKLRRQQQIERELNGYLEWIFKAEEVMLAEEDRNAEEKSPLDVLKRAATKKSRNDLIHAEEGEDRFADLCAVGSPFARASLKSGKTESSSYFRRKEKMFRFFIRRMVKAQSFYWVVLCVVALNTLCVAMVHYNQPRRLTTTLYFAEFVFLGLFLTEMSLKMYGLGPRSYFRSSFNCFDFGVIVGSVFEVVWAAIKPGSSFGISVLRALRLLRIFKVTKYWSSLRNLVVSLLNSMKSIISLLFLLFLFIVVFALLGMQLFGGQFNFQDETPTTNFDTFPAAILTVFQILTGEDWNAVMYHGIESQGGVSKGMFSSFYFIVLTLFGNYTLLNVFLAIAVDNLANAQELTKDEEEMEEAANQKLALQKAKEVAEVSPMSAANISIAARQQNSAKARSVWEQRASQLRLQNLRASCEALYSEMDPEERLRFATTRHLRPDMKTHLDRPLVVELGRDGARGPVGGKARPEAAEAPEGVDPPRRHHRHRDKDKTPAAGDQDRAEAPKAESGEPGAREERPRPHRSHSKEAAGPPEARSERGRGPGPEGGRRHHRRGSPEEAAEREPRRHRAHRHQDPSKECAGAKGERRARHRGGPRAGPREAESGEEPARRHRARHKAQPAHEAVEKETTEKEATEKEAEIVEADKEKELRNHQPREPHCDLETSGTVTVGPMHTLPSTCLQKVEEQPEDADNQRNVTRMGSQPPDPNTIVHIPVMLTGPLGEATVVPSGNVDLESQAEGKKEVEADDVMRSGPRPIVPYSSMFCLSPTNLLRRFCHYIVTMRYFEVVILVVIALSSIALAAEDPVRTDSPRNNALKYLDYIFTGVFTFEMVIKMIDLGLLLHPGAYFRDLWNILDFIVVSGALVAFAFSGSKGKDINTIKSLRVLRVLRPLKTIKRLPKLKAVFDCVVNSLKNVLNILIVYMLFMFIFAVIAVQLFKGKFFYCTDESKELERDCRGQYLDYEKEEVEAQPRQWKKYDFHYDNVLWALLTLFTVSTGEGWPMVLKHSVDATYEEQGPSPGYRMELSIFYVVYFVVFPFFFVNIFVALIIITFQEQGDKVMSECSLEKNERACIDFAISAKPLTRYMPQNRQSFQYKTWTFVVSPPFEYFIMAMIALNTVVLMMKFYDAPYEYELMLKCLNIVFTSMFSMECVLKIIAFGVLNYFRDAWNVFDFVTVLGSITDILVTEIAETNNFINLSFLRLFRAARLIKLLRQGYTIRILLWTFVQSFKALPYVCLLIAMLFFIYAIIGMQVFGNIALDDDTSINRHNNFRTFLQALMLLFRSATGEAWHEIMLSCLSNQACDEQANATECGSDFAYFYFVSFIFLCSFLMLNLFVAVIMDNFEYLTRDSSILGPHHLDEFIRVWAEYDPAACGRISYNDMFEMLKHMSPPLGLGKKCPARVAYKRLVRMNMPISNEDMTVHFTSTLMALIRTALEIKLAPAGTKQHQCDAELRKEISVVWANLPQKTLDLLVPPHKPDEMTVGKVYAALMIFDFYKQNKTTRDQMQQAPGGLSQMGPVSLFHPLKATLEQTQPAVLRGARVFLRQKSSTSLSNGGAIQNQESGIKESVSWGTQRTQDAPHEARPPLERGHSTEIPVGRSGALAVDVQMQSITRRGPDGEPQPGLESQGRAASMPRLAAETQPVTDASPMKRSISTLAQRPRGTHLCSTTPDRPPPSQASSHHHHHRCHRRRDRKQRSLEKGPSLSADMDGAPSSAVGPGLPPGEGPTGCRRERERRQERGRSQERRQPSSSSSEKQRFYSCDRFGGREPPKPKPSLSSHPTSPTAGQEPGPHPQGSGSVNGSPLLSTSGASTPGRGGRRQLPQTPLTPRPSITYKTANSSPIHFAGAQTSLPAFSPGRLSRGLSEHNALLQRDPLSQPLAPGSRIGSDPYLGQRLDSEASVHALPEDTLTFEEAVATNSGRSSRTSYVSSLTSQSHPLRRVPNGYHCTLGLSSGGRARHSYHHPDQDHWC
T1 sequence (Q02410 whole entry): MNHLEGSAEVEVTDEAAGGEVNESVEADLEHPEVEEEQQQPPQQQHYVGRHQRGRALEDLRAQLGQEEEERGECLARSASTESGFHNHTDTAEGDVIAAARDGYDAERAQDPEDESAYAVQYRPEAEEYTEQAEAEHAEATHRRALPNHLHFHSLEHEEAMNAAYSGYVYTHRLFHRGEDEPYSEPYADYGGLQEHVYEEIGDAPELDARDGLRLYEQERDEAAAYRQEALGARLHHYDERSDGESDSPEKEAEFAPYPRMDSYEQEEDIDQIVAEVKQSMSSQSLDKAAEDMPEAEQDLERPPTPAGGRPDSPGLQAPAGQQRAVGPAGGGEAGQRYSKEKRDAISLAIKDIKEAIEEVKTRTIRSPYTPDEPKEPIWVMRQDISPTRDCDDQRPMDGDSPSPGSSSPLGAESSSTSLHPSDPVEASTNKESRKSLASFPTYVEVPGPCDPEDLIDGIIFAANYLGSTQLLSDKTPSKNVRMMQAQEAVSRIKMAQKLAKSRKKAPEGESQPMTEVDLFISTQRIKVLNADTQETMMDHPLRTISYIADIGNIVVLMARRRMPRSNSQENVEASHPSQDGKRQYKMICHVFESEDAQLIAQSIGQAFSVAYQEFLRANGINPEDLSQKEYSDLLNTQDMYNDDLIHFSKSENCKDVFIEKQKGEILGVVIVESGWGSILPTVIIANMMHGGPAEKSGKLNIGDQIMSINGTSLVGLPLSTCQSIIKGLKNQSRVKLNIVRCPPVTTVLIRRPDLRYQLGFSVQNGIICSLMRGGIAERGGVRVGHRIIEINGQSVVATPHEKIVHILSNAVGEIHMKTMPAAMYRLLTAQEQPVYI
T5 sequence (P08183 whole entry): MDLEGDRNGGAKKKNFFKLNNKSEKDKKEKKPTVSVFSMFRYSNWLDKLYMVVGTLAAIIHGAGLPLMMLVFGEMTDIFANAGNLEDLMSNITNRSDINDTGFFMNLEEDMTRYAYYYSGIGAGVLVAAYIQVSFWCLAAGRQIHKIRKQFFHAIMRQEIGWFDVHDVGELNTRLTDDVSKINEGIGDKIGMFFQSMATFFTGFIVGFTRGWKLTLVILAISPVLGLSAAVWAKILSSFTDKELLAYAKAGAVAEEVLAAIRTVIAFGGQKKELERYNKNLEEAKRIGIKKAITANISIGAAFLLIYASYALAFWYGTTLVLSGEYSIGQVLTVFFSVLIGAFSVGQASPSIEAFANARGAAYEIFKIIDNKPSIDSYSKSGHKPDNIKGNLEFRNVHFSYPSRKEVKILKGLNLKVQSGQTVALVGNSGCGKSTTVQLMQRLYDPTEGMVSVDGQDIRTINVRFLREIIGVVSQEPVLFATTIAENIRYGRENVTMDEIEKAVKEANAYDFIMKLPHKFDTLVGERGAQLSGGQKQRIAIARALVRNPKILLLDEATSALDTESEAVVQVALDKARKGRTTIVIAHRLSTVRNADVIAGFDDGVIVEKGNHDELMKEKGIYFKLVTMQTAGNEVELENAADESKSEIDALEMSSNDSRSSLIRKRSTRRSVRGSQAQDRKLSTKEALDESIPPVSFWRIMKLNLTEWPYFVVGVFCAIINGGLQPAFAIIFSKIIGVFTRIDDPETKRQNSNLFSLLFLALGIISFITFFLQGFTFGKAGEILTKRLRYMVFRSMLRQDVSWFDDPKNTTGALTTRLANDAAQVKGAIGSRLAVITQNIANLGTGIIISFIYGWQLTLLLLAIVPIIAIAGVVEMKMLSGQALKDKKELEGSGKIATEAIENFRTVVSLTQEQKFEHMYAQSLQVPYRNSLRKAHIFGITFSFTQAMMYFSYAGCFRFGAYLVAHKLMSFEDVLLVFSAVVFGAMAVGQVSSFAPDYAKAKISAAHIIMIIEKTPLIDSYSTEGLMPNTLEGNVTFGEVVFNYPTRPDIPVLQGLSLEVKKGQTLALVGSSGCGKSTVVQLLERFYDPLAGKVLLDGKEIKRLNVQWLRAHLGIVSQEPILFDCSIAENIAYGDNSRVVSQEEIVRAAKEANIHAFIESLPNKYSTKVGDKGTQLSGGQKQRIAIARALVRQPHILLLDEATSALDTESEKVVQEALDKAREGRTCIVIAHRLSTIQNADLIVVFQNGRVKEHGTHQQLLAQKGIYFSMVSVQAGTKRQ

## O=C(NC(c1ccccc1)c1ccsc1)C1CCN(CCOc2ccc(Cl)cc2Cl)CC1 (centres undefined)
Melanocortin receptor 4
  EC50: > 89.2 µM (inactive)

## C=C(C)C(=O)Nc1cccc(C2=NOC3(C2)C[C@@H](C(N)=O)N(C(=O)C2(C)CC2)C3)c1 (some centres undefined)
[1]
  IC50: 1.84 µM (active)
[2]
  IC50: > 50 µM (inactive)
ORF 73
  AC50: 17.9 µM (active)
[3]
  IC50: 408 nM (active)
[4]
  IC50: 1.45 µM (active)

## CCCCNC(=O)CCn1c(=O)c2ccccc2n(Cc2ccccc2C)c1=O
[5]
  IC50: 2.98 µM (active)
[6]
  EC50: > 53 µM (inactive)
[7]
  IC50: 19.8 µM (active)

## O=C(c1ccoc1)N1CCCN(c2cc(-c3ccccc3)nc3cc(-c4cccc(Cl)c4)nn23)CC1
[8]
  EC50: 1.98 µM (active)
[9]
  EC50: 6 µM (active)

## Cc1ccc(N(C)S(=O)(=O)c2cccc(C(=O)NCC(c3cccs3)N3CCOCC3)c2)cc1 (centres undefined)
CHO-K1
  IC50: > 66.2 µM (inactive)
[10]
  IC50: > 49.8 µM (inactive)
[11]
  IC50: 715 nM (active)
[12]
  IC50: 12 µM (inactive)
Orexin receptor type 2 [13]
  IC50: > 88.8 µM (inactive)
Orexin receptor type 2 [14]
  IC50: 3.35 µM (active)

## Nc1ccc2cc(NCCc3ccccc3)cc(Nc3ncccn3)c2n1
[15]
  Ki: 1.58 µM (active)
LIM domain kinase 1
  Ki: 631 nM (active)
[16]
  Ki: 2 µM (active)
[17]
  Ki: 3.16 µM (active)

## O=C(NC(=S)Nc1cccc2cccnc12)c1cccs1
CHO-K1
  IC50: > 66.2 µM (inactive)
[10]
  IC50: > 49.7 µM (inactive)
[11]
  IC50: > 3.31 nM (active)
[12]
  IC50: > 5.52 µM (active)
[18]
  IC50: > 66 µM (inactive)
[19]
  IC50: > 66 µM (inactive)
Orexin receptor type 2 [13]
  IC50: > 88.8 µM (inactive)
Orexin receptor type 2 [14]
  IC50: > 50 µM (inactive)
